Measurements as given in the supplement of paper PMC10307832.

Tests used:
Test in all cases: relative viability (nuclei count vs DMSO), 5 days (fraction); higher = more cells survive
Erlotinib + Tozasertib = compound: C#Cc1cccc(Nc2ncnc3cc(OCCOC)c(OCCOC)cc23)c1 [Erlotinib] + Cc1cc(Nc2cc(N3CCN(C)CC3)nc(Sc3ccc(NC(=O)C4CC4)cc3)n2)n[nH]1 [Tozasertib] (partner 0.1 µM)
Outline: (§1)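 The day after seeding in 1536-well plates, lung cancer cell lines were treated by pin tool with a single drug, or with a fixed anchor-drug dose together with five library-drug doses (not always all listed) in √10 steps. After 5 days, a combined fix-and-stain solution (final 0.05% Triton X-100, 1% formaldehyde, 1 ug/ml Hoechst) was added. Nuclei counted on 4× images gave relative viability as treated counts over vehicle counts, reported as the median of duplicate plates.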

Erlotinib + Palbociclib = compound: C#Cc1cccc(Nc2ncnc3cc(OCCOC)c(OCCOC)cc23)c1 [Erlotinib] + CC(=O)c1c(C)c2cnc(Nc3ccc(N4CCNCC4)cn3)nc2n(C2CCCC2)c1=O [Palbociclib] (partner 0.5 µM)
Outline: as §1

AT9283 + Crizotinib = compound: O=C(Nc1c[nH]nc1-c1nc2ccc(CN3CCOCC3)cc2[nH]1)NC1CC1 [AT9283] + C[C@@H](Oc1cc(-c2cnn(C3CCNCC3)c2)cnc1N)c1c(Cl)ccc(F)c1Cl [Crizotinib] (partner 1 µM)
Outline: as §1

AT9283 + Phenformin = compound: O=C(Nc1c[nH]nc1-c1nc2ccc(CN3CCOCC3)cc2[nH]1)NC1CC1 [AT9283] + N=C(N)NC(=N)NCCc1ccccc1 [Phenformin] (partner 250 µM)
Outline: as §1

AT9283 + Olaparib = compound: O=C(Nc1c[nH]nc1-c1nc2ccc(CN3CCOCC3)cc2[nH]1)NC1CC1 [AT9283] + O=C(c1cc(Cc2n[nH]c(=O)c3ccccc23)ccc1F)N1CCN(C(=O)C2CC2)CC1 [Olaparib] (partner 8 µM)
Outline: as §1

| Cell Line | relative viability (Erlotinib + Tozasertib; first compound 0.02 µM) | relative viability (Erlotinib + Tozasertib; first compound 0.2 µM) | relative viability (Erlotinib + Tozasertib; first compound 0.6325 µM) | relative viability (Erlotinib + Tozasertib; first compound 2 µM) | relative viability (Erlotinib + Palbociclib; first compound 0.02 µM) | relative viability (Erlotinib + Palbociclib; first compound 0.2 µM) | relative viability (Erlotinib + Palbociclib; first compound 0.6325 µM) | relative viability (Erlotinib + Palbociclib; first compound 2 µM) | relative viability (AT9283 + Crizotinib; first compound 0.003 µM) | relative viability (AT9283 + Crizotinib; first compound 0.03 µM) | relative viability (AT9283 + Crizotinib; first compound 0.09487 µM) | relative viability (AT9283 + Crizotinib; first compound 0.3 µM) | relative viability (AT9283 + Phenformin; first compound 0.003 µM) | relative viability (AT9283 + Phenformin; first compound 0.03 µM) | relative viability (AT9283 + Phenformin; first compound 0.09487 µM) | relative viability (AT9283 + Phenformin; first compound 0.3 µM) | relative viability (AT9283 + Olaparib; first compound 0.003 µM) | relative viability (AT9283 + Olaparib; first compound 0.03 µM) | relative viability (AT9283 + Olaparib; first compound 0.09487 µM) | relative viability (AT9283 + Olaparib; first compound 0.3 µM) |
| --- | --- | --- | --- | --- | --- | --- | --- | --- | --- | --- | --- | --- | --- | --- | --- | --- | --- | --- | --- | --- |
| EKVX | 0.329 | 0.226 | 0.212 | 0.111 | 0.348 | 0.191 | 0.205 | 0.115 | 0.878 | 0.663 | 0.371 | 0.216 | 0.237 | 0.223 | 0.212 | 0.196 | 0.796 | 0.758 | 0.496 | 0.239 |
| COR-L23 | 0.253 | 0.202 | 0.163 | 0.114 | 0.292 | 0.287 | 0.383 | 0.29 | 0.616 | 0.185 | 0.118 | 0.158 | 0.45 | 0.221 | 0.128 | 0.12 | 0.331 | 0.156 | 0.115 | 0.137 |
| NCI-H2228 | 0.237 | 0.164 | 0.169 | 0.142 | 0.805 | 0.739 | – | 0.572 | 0.587 | 0.272 | 0.195 | 0.171 | 0.363 | 0.256 | 0.129 | 0.107 | 0.675 | 0.455 | 0.228 | 0.153 |
| NCI-H647 | 0.257 | 0.179 | 0.28 | 0.136 | 0.417 | 0.307 | 0.562 | 0.316 | 1.01 | 0.357 | 0.201 | 0.121 | 0.525 | 0.305 | 0.145 | 0.0997 | 0.555 | 0.311 | 0.0867 | 0.0596 |
| NCI-H1651 | 0.671 | – | 0.606 | 0.282 | 0.527 | 0.474 | 0.514 | 0.478 | 0.856 | 0.897 | 0.505 | 0.411 | 0.293 | 0.358 | 0.277 | 0.219 | 0.176 | 0.189 | 0.209 | 0.243 |
| NCI-H1993 | 0.574 | 0.518 | 0.569 | 0.591 | 0.585 | 0.561 | 0.503 | 0.514 | 0.915 | 0.654 | 0.572 | 0.543 | 0.474 | 0.496 | 0.431 | 0.408 | 1.07 | 1 | 0.552 | 0.391 |
| HCC-827 | 0.223 | 0.114 | 0.101 | 0.126 | 0.191 | 0.146 | 0.135 | 0.154 | 0.91 | 0.808 | 0.41 | 0.283 | 0.399 | 0.352 | 0.356 | 0.196 | 0.702 | 0.53 | 0.344 | 0.255 |
| SK-LU-1 | 0.336 | 0.352 | 0.332 | 0.267 | 0.372 | 0.432 | 0.376 | 0.357 | 0.922 | 0.519 | 0.295 | 0.305 | 0.582 | 0.431 | 0.179 | 0.179 | 0.495 | 0.479 | 0.259 | 0.258 |
| NCI-H1944 | 0.249 | 0.21 | 0.227 | 0.174 | 0.331 | 0.242 | 0.264 | 0.231 | 0.9 | 0.648 | 0.257 | 0.294 | 0.201 | 0.171 | 0.122 | 0.136 | 0.401 | 0.361 | 0.205 | 0.206 |
| BEN | 0.593 | 0.462 | 0.468 | 0.436 | 0.497 | 0.442 | 0.507 | 0.483 | 0.818 | 0.663 | 0.207 | 0.236 | 0.259 | 0.253 | 0.256 | 0.176 | 0.969 | 0.747 | 0.481 | 0.298 |
| ABC-1 | 0.154 | 0.172 | 0.173 | 0.148 | – | 0.585 | 0.489 | – | 1.03 | 0.238 | 0.182 | 0.193 | 0.231 | 0.159 | 0.233 | 0.192 | 0.853 | 0.324 | 0.551 | 0.417 |
| H3255 | – | 0.564 | 0.211 | 0.142 | 0.31 | 0.325 | 0.275 | 0.251 | 0.909 | 0.77 | 0.471 | 0.146 | 0.403 | 0.328 | 0.273 | 0.255 | 0.553 | 0.52 | 0.545 | 0.231 |
| NCI-H1437 | 0.406 | 0.403 | 0.448 | 0.357 | 0.308 | 0.27 | 0.319 | 0.281 | 1.04 | 0.732 | 0.443 | 0.243 | 0.294 | 0.263 | 0.149 | 0.127 | 0.616 | 0.549 | 0.3 | 0.277 |
| HCC-44 | 1.18 | 0.421 | 1.04 | 0.711 | 0.991 | 1.03 | 0.982 | – | 0.775 | 0.634 | 0.457 | 0.211 | 0.124 | 0.169 | 0.106 | 0.0704 | 1.01 | 0.963 | 0.724 | 0.817 |
| CAL-12T | 0.357 | 0.226 | 0.188 | 0.153 | 0.433 | 0.125 | 0.154 | 0.146 | 0.642 | 0.293 | 0.276 | 0.232 | 0.607 | 0.345 | 0.267 | 0.18 | 0.734 | 0.536 | 0.307 | 0.222 |
| NCI-H23 | 0.387 | 0.344 | 0.299 | 0.26 | 0.571 | 0.447 | 0.453 | 0.509 | 0.458 | 0.326 | 0.299 | 0.189 | 0.811 | 0.744 | 0.413 | 0.297 | 0.334 | 0.297 | 0.3 | 0.211 |
